Source: patent US9040715B2 (priority 2008, dated 2015)
In brackets after ≈: the same amount, converted by molar mass.

Legend:
C. albicans Mutants = test: MIC50 in C. albicans mutant strains; format: cell-based; conditions: Candida albicans
Procedure: (§1) The minimum inhibitory concentrations resulting in 50% growth inhibition (MIC50) of […] Candida species (C. albicans, C. tropicalis and C. glabrata, C. lusitaniae, C. parapsilosis, and C. apicola) as well as Aspergillus fumigatus to a set of novel synthetic compounds was determined in accordance with the guidelines in CLSI document M27-A2 (Clinical and Laboratory Standards Institute; Wayne, Pa.). The total volume of cells and drug was 100 μL per microtiter well, and each drug was diluted in RPMI to achieve final concentrations of 0.2-100 μg/ml. Uninoculated cultures were used as a reference standard. Stock inoculum suspensions were prepared from 24 hour cultures on YPD (yeast extract/peptone/dextrose) media at 30° C. For MIC determinations, an inoculum of 1.0×10^3 cells of Candidia and 2.0×10^3 cells of Aspergillus per well were used, and cells in diluted drugs were prepared in RPMI-1640 medium. MICs were determined both visually and spectrophotometrically at 24 hours and 48 h at 550 nm using a micro plate reader. The MIC50 endpoint was measured as the lowest drug concentration resulting in a reduction of growth of 50% or more compared with growth of the control.
The MIC50 of Compounds I-1, I-2, and I-5 in several mutant strains of Candida albicans, including fluconazole resistant clinical strains, was determined according to the methods described in Example 1 (see Table 9). The activity of Compound I-1 against fluconazole resistant strains was further explored (see Table 10). In Table 10, Strain #1 is a fluconazole sensitive Candida albicans strain; Strain #17 is a fluconazole resistant Candida albicans strain; C. albicans CS#01 is a first clinical strain; C. albicans CS#02 is a second clinical strain.

[1] = tested on: Saccharomyces cerevisiae (YPH501); test: Anti-fungal/anti-yeast activity: MIC50 (broth microdilution) and MFC; format: cell-based
Candidia parapsilosis = test: as above; format: cell-based
Procedure: (§2) Fluconazole, an ergosterol inhibitor, and the beta-1,3-glucan inhibitor micafungin served as controls (See Tables 1-8).
as §1
(§3) The minimum fungicidal concentrations (MFCs) were determined for each drug-isolate-medium combination as follows. After 48 hours of incubation, 100 μL of each drug-isolate-medium combination (2 plates) was subcultured onto YPD plates (100 μL of solution was spread over the YPD plate). […] The plates were then incubated at 30° C. for 48 hours.
(§4) The in vitro fungicidal activities (MFCs) were determined for each drug-isolate-medium combination as follows. After 48 hours of incubation, 10 μL each drug-isolate-medium combination was spotted onto YPD plates (10 μL of each well is spotted sequentially with positive and negative control wells). […] The plates were then incubated at 30° C. for 48 hours.

Candida lusitaniae = test: as above; format: cell-based
Procedure: as §2, §1, §3, §4

Candida glabrata = test: as above; format: cell-based
Procedure: as §2, §1, §3, §4

Candida tropicalis = test: as above; format: cell-based
Procedure: as §2, §1, §3, §4

Candida apicola = test: as above; format: cell-based
Procedure: as §2, §1, §3, §4

Candida albicans (CAF-2) = test: as above; format: cell-based
Procedure: as §2, §1, §3, §4

Aspergillus fumigatus = test: as above; format: cell-based
Procedure: as §2, §1, §3, §4

Huh7 or HepG2 cell line = test: MTT assay (cytotoxicity); format: cell-based, human; conditions: 24 hours and 48 hours
Procedure: The MTT assay is a colorimetric assay that measures the reduction of yellow 3-(4,5-dimethylhiazol-2-yl)-2,5-diphenyl tetrazolium bromide (MTT) by mitochondrial succinate dehydrogenase. The MTT enters the cells and passes into the mitochondria where it is reduced to an insoluble, dark purple, formazan product. The cells are then solubilized with an organic solvent (e.g., isopropanol) and the released, solubilized formazan reagent is measured spectrophotometrically. Since reduction of MTT can only occur in metabolically active cells, the level of activity is a measure of the viability of the cells.
Cells of the Huh7 or HepG2 cell line were seeded in a 96 well plate. The plate was incubated overnight at 37° C. in a humidified incubator, 5% CO2. The test compounds were added to the plate. Different concentrations of drug were tested in triplicate along with a negative control. The final volume was adjusted to 100 μl per well. The plate was incubated overnight at 37° C. in a humidified incubator, 5% CO2. After 24 hours and 48 hours, MTT reagent (5 mg/ml, 10 μl/100 μl per well of the 96 well plate) was added and incubated at 37° C. for 3 hours. After 3 hours, 100 μl of the DMSO solution was added to each well and the plate was rocked at room temperature for 1 hour. The plate was then read on a plate reader at […].

Huh7 cells = test: Neutral red uptake assay (cytotoxicity); format: cell-based, human
From the text: The neutral red uptake assay is a cytotoxicity test that is based on the ability of viable cells to incorporate and bind the supra-vital dye neutral red in the lysosomes. This weakly cationic dye penetrates cell membranes by non-ionic passive diffusion and concentrates in the lysosomes, where it binds by electrostatic hydrophobic bonds to anionic and phosphate groups of the lysosomal matrix. The dye is then extracted from the viable cells using an acidified ethanol solution, and the absorbance of the solubilized dye is read. When the cell dies or the pH gradient is reduced, the dye is not retained and consequently, the amount of retained dye is proportional to the number of viable cells. Most primary cells and cell lines can be used for this method. The HepG2 and Huh7, two human hepatoma cell lines, were used for this study. The cells were seeded in 96-well tissue culture plates and treated for 48 hours with the compounds. The plates were then incubated for 2 hours with a medium containing neutral red. The cells were subsequently washed, the dye was extracted in each well, and the absorbance was read using a spectrophotometer (FIG. 3 and Table 11).

[2] = Saccharomyces cerevisiae (YPH501)

`O=C(Cn1sc2ccccc2c1=O)Nc1ccccc1Oc1ccccc1` [Compound I-2] gave an MIC50 (C. albicans Mutants; C. albicans strain CAF-2) of 3 µg/mL (≈ 7.97 µM), an MIC50 (C. albicans Mutants; C. albicans strain CHK11) of 12.5 µg/mL (≈ 33.2 µM) and an MIC50 (C. albicans Mutants; C. albicans strain CHK21) of over 100 µg/mL. The MIC50 (C. albicans Mutants; C. albicans strain CHK23) was 25 µg/mL (≈ 66.4 µM), the MIC50 (C. albicans Mutants; C. albicans strain GOA31) was 3 µg/mL (≈ 7.97 µM) and the MIC50 (C. albicans Mutants; C. albicans strain GOA32) was 3 µg/mL (≈ 7.97 µM). The MFC ([1]; Saccharomyces cerevisiae) was 3.2 µg/mL (≈ 8.5 µM), the “Activity (fungicidal/fungistatic)” value [1, 2] was “fungicidal (An MFC/MIC ratio of less than four indicates that the compound is fungicidal)” and the “Ratio MFC/MIC” value [1, 2] was 2. For the same molecule, the MIC ([1]; Saccharomyces cerevisiae, read-out: MIC-50) was 1.6 µg/mL (≈ 4.25 µM), the MFC (Candidia parapsilosis) was 3.2 µg/mL and the “Activity (fungicidal/fungistatic)” value (Candidia parapsilosis; Candidia parapsilosis) was “fungicidal (An MFC/MIC ratio of less than four indicates that the compound is fungicidal)”. For the same molecule, the “Ratio MFC/MIC” value (Candidia parapsilosis; Candidia parapsilosis) was 2, the MIC (Candidia parapsilosis; read-out: MIC-50) was 1.6 µg/mL and the “Activity (fungicidal/fungistatic)” value (Candida lusitaniae; Candida lusitaniae) was “fungicidal (An MFC/MIC ratio of less than four indicates that the compound is fungicidal)”. For the same molecule, the “Ratio MFC/MIC” value (Candida lusitaniae; Candida lusitaniae) was 2, the MFC (Candida lusitaniae; Clavispora lusitaniae) was 3.2 µg/mL and the MIC (Candida lusitaniae; Clavispora lusitaniae, read-out: MIC-50) was 1.6 µg/mL. For the same molecule, the “Activity (fungicidal/fungistatic)” value (Candida glabrata; Candida glabrata) was “fungicidal (An MFC/MIC ratio of less than four indicates that the compound is fungicidal)”, the “Ratio MFC/MIC” value (Candida glabrata; Candida glabrata) was 2 and the MFC (Candida glabrata; Nakaseomyces glabratus) was 3.2 µg/mL. The MIC (Candida glabrata; Nakaseomyces glabratus, read-out: MIC-50) was 1.6 µg/mL, the “Activity (fungicidal/fungistatic)” value (Candida tropicalis) was “fungicidal (An MFC/MIC ratio of less than four indicates that the compound is fungicidal)” and the MFC (Candida tropicalis) was 3.2 µg/mL. The “Ratio MFC/MIC” value (Candida tropicalis) was 1, the MIC (Candida tropicalis; read-out: MIC-50) was 3.2 µg/mL and the “Activity (fungicidal/fungistatic)” value (Candida apicola; Candida apicola) was “fungicidal (An MFC/MIC ratio of less than four indicates that the compound is fungicidal)”. The MIC-50 (Candida apicola; Candida apicola) was 6.4 µg/mL, the “Ratio MFC/MIC” value (Candida apicola; Candida apicola) was 1 and the MFC (Candida apicola; Starmerella apicola) was 6.4 µg/mL. For the same molecule, the “Activity (fungicidal/fungistatic)” value (Candida albicans (CAF-2)) was “fungicidal (An MFC/MIC ratio of less than four indicates that the compound is fungicidal)”, the MFC (Candida albicans (CAF-2)) was 3.2 µg/mL and the “Ratio MFC/MIC” value (Candida albicans (CAF-2)) was 1. For the same molecule, the MIC (Candida albicans (CAF-2); read-out: MIC-50) was 3.2 µg/mL, the “Activity (fungicidal/fungistatic)” value (Aspergillus fumigatus) was “fungistatic (an MFC/MIC ratio of greater than four indicates that the compound is fungistatic)” and the MFC (Aspergillus fumigatus) was 50 µg/mL. For the same molecule, the MIC50 (Aspergillus fumigatus) was 12.5 µg/mL, the “Ratio MFC/MIC” value (Aspergillus fumigatus) was 4 and the “Toxicity to mammalian cell lines (MTT assay)” value (Huh7 or HepG2 cell line) was “minimally toxic”. For the same molecule, the “Percentage Viability” value (Huh7 cells; 3.3 μg/mL (approx 1X MIC)) was over 100%, the “Percentage Viability” value (Huh7 cells; 10 μg/mL (approx 3X MIC)) was over 100% and the “Percentage Viability” value (Huh7 cells; 33 μg/mL (approx 10X MIC)) was over 100%. For the same molecule, the “Percentage Viability” value (Huh7 cells; 100 μg/mL (approx 30X MIC)) was 75%.
